Test results published in patent US10086066B2, “Tissue targeted antigenic activation of the immune response to treat cancers” (Qu Biologics Inc., priority 2004, dated 2018).

System: 4T1 mammary carcinoma cells
Assay: Indomethacin efficacy study QB35, 4T1 mammary carcinoma (tumour volume, CD11b+ cells)
Type: in vivo, mouse (Balb/c)
Experimental: In an effort to examine the efficacy of combining antigenic composition treatment with indomethacin. Briefly, experiments were designed wherein there were 10 mice in each of 4 groups with all treatments beginning on day 4 after tumour inoculation. All mice (Balb/c female) received 50,000 4T1 mammary carcinoma cells subQ on day 0. Thereafter, the 4 groups were treated as follows: 1) Indomethacin daily (in drinking water)+PBS subQ every 2 days; 2) Indomethacin daily (in drinking water)+S. aureus SSI subQ every 2 days; 3) Control vehicle daily (in drinking water)+PBS subQ every 2 days; and 4) Control vehicle daily (in drinking water)+S. aureus SSI subQ every 2 days.

Q: With COc1ccc2c(c1)c(CC(=O)O)c(C)n2C(=O)c1ccc(Cl)cc1 [Indomethacin] as the compound, how does the “frequency of CD11b+ cells in the tumors relative to the control” value (day 11, indomethacin daily in drinking water, with PBS or S. aureus SSI (FIG. 35)) read?
A: significantly increased

Q: What about the “CD11b+ cells in the tumours” value (day 22 (FIG. 36)) of the same compound?
A: increase
